Patent publication US20060173080A1, “Methods of modulating TNF using bupropion” (The Regents of the University of California, priority 2002, published 2006)
Entries after “also recorded” stand apart in the source; their conditions may differ. Where a name gives a salt, the structure may show the parent alone.

Columns and labels:
[1] = test system: CD patients; details: Kast and Altschuler 2001; cited from earlier work
[2] = test system: TNF; details: Altschuler and Kast 2003; cited from earlier work
[3] = test system: IL-1beta; assay: Serum IL-1beta by ELISA in LPS-challenged mice; format: in vivo, BALB/c mice; details: bupropion 100 mg/kg i.p. 1 h before 600 μg LPS i.p., serum 90 min after LPS
Method: (§1) To study the immunomodulatory effects of bupropion we used a mouse model in which TNF production is induced by stimulation with lipopolysaccharide (LPS) (Bozza et al, The PACAP-type I receptor agonist maxadilan from sand fly saliva protects mice against lethal endotoxemia by a mechanism partially dependent on IL-10, Eur. J. Immunol. 28, 3120-3127, 1998). BALB/c mice were injected intraperitoneally (i.p.) with bupropion or placebo 1 h prior to i.p. injection of LPS (600 ug/mouse).
(§2) Male, 6 weeks old BALB/c mice were used in LPS-induced shock experiments. All mice were raised and maintained at the animal facilities at the Goncalo Moniz Research Center-FIOCRUZ, and provided with rodent diet and water ad libitum. Animal numbers in experimental groups were the minimum necessary to permit statistical analysis. All animals were sacrificed under anaesthesia. […]
(§3) TNF, IL-1beta, IFN-gamma and IL-10 concentrations in serum samples or in supernatants from macrophage cultures were determined by enzyme-linked immunosorbent assay (ELISA) using antibody pairs and recombinant cytokines from R&D systems (Minneapolis, Minn., USA), according to the manufacturer's instructions. After incubation with streptoavidin-peroxidase conjugate (Sigma), the reaction was developed using 3,3′, 5,5′-tetramethylbenzidine (TMB) peroxidase substrate and read at 450 nm. The serum concentration of nitrite (NO2−) was determined by the Griess reaction, as an indicator of nitric oxide production (Green et al., Analysis of nitrate nitrite and [^15N] nitrite in biological fluids. Anal. Biochem 126, 131-138, 1982). […] The absorbance of the reaction product at 540 nm was measured using an ELISA reader. The NO2^− concentration was determined by using sodium nitrite as standard. Data were analyzed using Student's t test, one-way ANOVA or Newman-Keuls multiple comparison test, using Graph Pad Prism 3.0 software. […]

[4] = test system: BALB/c mice; assay: LPS-induced shock model: survival and signs of endotoxemia after lethal LPS challenge; format: in vivo; details: for survival after lethal LPS challenge: mouse, in vivo, hydrochloride
Method: Male BALB/c mice were injected with 11, 33 or 100 mg/kg of bupropion or with placebo i.p. in saline 1 h before challenge with 600 μg of E. coli LPS (Sigma, St. Louis, Mo.) by i.p. route. Mice were sacrificed 90 min for detection of cytokines in the serum by sandwich ELISA. Values represent the means±SEM of 5 mice per group. * P<0.05.
BALB/c mice were injected intraperitoneally (i.p.) with bupropion or placebo 1 h prior to i.p. injection of LPS (600 ug/mouse).
(§4) Male, 6 weeks old BALB/c mice were used in LPS-induced shock experiments. All mice were raised and maintained at the animal facilities at the Goncalo Moniz Research Center-FIOCRUZ, and provided with rodent diet and water ad libitum. Animal numbers in experimental groups were the minimum necessary to permit statistical analysis. All animals were sacrificed under anaesthesia.
In some experiments, groups of mice received i.p. injection of propranolol (1 mg/Kg), SCH23390 (25 μg/kg) and sulpiride (25 mg/Kg) 1 h prior to injection of bupropion. […] To determine serum TNF, IL-1 beta and IL-10 levels, mice were sacrificed 90 min after injection of LPS and bled by axilar vein puncture. Levels of IFN-gamma and nitric oxide were assayed using sera of mice sacrificed 4 h after LPS injection. Platelet and leukocyte cell counts were performed using blood collected with EDTA after 4 h of LPS challenge, using an automated cell counter (ADVIA 60, Bayer).

[5] = test system: nitric oxide; assay: Serum nitrite (Griess reaction) as indicator of nitric oxide production in LPS-challenged mice; format: in vivo, BALB/c mice; details: bupropion i.p. 1 h before 600 μg LPS
Method: as §1
Male, 6 weeks old BALB/c mice were used in LPS-induced shock experiments. […]
as §3, with “reader.” for “reader. The NO2^− concentration was determined by using sodium nitrite as standard. Data were analyzed using Student's t test, one-way ANOVA or Newman-Keuls multiple comparison test, using Graph Pad Prism 3.0 software.”

[6] = test system: TNF; assay: Serum TNF by ELISA in LPS-challenged mice; format: in vivo, BALB/c mice; details: bupropion 100 mg/kg i.p. 1 h before 600 μg LPS i.p., serum 90 min after LPS
Method: as §1, §4
Groups of mice were injected intraperitoneally (i.p.) with a dose of 600 μg of LPS (from Escherichia coli serotype 0111 :B4, Sigma, St. Louis, Mo., USA) in saline (previously determined as LD 100) 1 h after injection of placebo or bupropion. In some experiments, groups of mice received i.p. injection of propranolol (1 mg/Kg), SCH23390 (25 μg/kg) and sulpiride (25 mg/Kg) 1 h prior to injection of bupropion. […]. To determine serum TNF, IL-1 beta and IL-10 levels, mice were sacrificed 90 min after injection of LPS and bled by axilar vein puncture. Levels of IFN-gamma and nitric oxide were assayed using sera of mice sacrificed 4 h after LPS injection. Platelet and leukocyte cell counts were performed using blood collected with EDTA after 4 h of LPS challenge, using an automated cell counter (ADVIA 60, Bayer).
as §3

[7] = test system: β-adrenergic receptor; details: Garrcha et al. 1985; cited from earlier work
[8] = test system: platelet and leukocyte numbers in peripheral blood; assay: Platelet and leukocyte counts in peripheral blood 4 h after LPS challenge; format: in vivo, BALB/c mice; details: bupropion 100 mg/kg i.p. 1 h before LPS, hydrochloride
Method: FIG. 6 is a bar graph depicting normalization of platelet and leukocyte levels by bupripion treatment. Groups of BALB/c mice were injected with bupropion 100 mg/kg (Wellbutrin, Glaxo) or with placebo i.p. in saline 1 h before challenge with 600 μg of LPS (DL-100) by i.p. route. Platelet and leukocyte numbers were evaluated in peripheral blood samples collected 4 h after LPS challenge in an automated cell counter (Bayer). * P<0.05 placebo compared with normal levels; # P<0.05 bupropion compared with placebo. In a shock often platelet levels drop precipitously due to intravascular coagulation and leukocyte also fall secondary to TNF induced apoptosis. The normalization by bupropion is consistent with the other effects of bupropion in this model.
Groups of mice were injected intraperitoneally (i.p.) with a dose of 600 μg of LPS (from Escherichia coli serotype 0111 :B4, Sigma, St. Louis, Mo., USA) in saline (previously determined as LD 100) 1 h after injection of placebo or bupropion. In some experiments, groups of mice received i.p. injection of propranolol (1 mg/Kg), SCH23390 (25 μg/kg) and sulpiride (25 mg/Kg) 1 h prior to injection of bupropion. […]. To determine serum TNF, IL-1 beta and IL-10 levels, mice were sacrificed 90 min after injection of LPS and bled by axilar vein puncture. […]

[9] = test system: IFN-gamma; assay: Serum IFN-gamma by ELISA in LPS-challenged mice; format: in vivo, BALB/c mice; details: bupropion 100 mg/kg i.p. 1 h before 600 μg LPS i.p., serum 4 h after LPS
Method: as §1, §2, §3

[10] = listed as bupropion hydrochloride
[11] = listed as Bupropion, hydrochloride

CC(NC(C)(C)C)C(=O)c1cccc(Cl)c1 (racemic) [bupropion, (.±.)-1-(3-chlorophenyl)-2-[(1,1-dimethylethyl)amino]-1-propanone hydrochloride]
clinical remission of CD (published cases) [1]: clinical remission
circulating TNF levels [2]: lowers
serum IL-1beta level compared with placebo [3, 10]: decrease
serum IL-1beta level compared with placebo ([3]; hydrochloride): significantly reduced
serum IL-1beta level compared with placebo [3, 11]: significantly decreased
signs of endotoxemia (diarrhea, immobility, lethargy, piloerection, shivering) ([4]; bupropion 100 mg/kg, compared with placebo): milder or absent
survival after lethal LPS challenge [4]: protects mice
survival after lethal LPS challenge [4, 10]: increased survival rates
survival after lethal LPS challenge ([4]; listed as buproprion): significantly increased the survival time
nitric oxide level compared with placebo [5]: decreased with a trend toward significance
production of nitric oxide, reduction compared to placebo treated mice ([5]; serum 4 h after LPS): about four-fold
serum TNF level compared with placebo [6, 10]: decrease
serum TNF level compared with placebo ([6]; hydrochloride): lowers; also recorded: significantly reduced
serum TNF level compared with placebo [6, 11]: significantly decreased
serum TNF level compared with placebo ([6]; listed as buproprion, hydrochloride): decreased
compensatory β-adrenergic receptor down-regulation [7]: does not cause
leukocyte levels [8]: higher leukocyte levels; also recorded: normalization
platelet counts [8]: significantly higher than placebo treated mice and similar to those of normal mice; also recorded: normalization
serum IFN-gamma level compared with placebo [9, 10]: decrease
serum IFN-gamma level compared with placebo ([9]; hydrochloride): significantly reduced
serum IFN-gamma level compared with placebo [9, 11]: significantly decreased
